# Where “and” joins values, the source holds several entries; their conditions need not be identical. Identical values can stand only once. Like-named read-outs stand apart in the source and are kept apart here.
# Assays:
# Format in all cases: in vivo
# Scirpus species (SCPSS) = assay: Herbicidal mixtures for weed control in transplanted paddy rice (in-water application, visual % injury); details: SCPJU
# Procedure, shortened: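 Weeds sown in flooded puddled mineral soil (pH ~7.3–7.8, ~1.0% organic matter) and treated at second–third true leaf stage by injecting acetone/2.5% Agri-dex stock into the paddy water. A, C and D dosed as acid equivalent, partner herbicides as active ingredient. Injury scored visually after 3 weeks in greenhouse, 0–100% versus untreated plants.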
# [1] = test system: Polygonum pensylvanicum L. (POLPY); assay: Postemergence herbicidal mixtures for weed control in direct seeded rice (greenhouse, visual % injury); details: for % Injury Ob: POLPY
# [2] = test system: Ipomoea hederacea (L.) JACQ. (IPOHE); assay: Postemergence herbicidal mixtures for weed control in direct seeded rice (greenhouse, visual % injury after 3 weeks); details: for % Injury Ob: IPOHE
# [3] = test system: bird's-eye speedwell (Veronica persica L; VERPE); assay: Postemergence herbicidal activity of mixtures in cereal crops (greenhouse, visual injury); details: for VERPE Ob: Table 28
# Procedure, shortened: (§1)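 Weeds grown in greenhouse (~14 h photoperiod, ~18/17 °C day/night) to second–third true leaf stage, sprayed postemergence with compound and second cereal herbicide alone or combined; solvent-blank controls. Injury scored visually after 20-22 days, 0–100% (complete kill); expected mixture activity = A+B−(A×B/100).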
# [4] = test system: wild pansy (Viola tricolor L; VIOTR); assay: as above; details: Viola tricolor, post-emergence, read-out: VIOTR Ob
# Procedure, shortened: as §1
# Cyperus iria L. (CYPIR) = assay: Postemergence herbicidal mixtures for weed control in direct seeded rice (greenhouse, visual % injury); details: for % Injury Ob: CYPIR
smiles,measurement,setting,value
"COC(=O)c1nc(-c2ccc(Cl)c(OC)c2F)cc(N)c1Cl [Compound A Methyl, 4-amino-3-chloro-6-(4-chloro-2-fluoro-3-methoxyphenyl)pyridine-2-carboxylic acid methyl ester]",% Injury Ob,Scirpus species (SCPSS); 17.5 g/ha alone,90%
same,% Injury Ob,[1]; 4.38 g/ha alone,10%
same,% Injury Ob,[1]; 8.75 g/ha alone,50%
same,% Injury POLPY Ob,[1]; alone 4.38 g/ha,50%
same,% Injury POLPY Ob,[1]; alone 8.75 g/ha,60%
same,% Injury Ob,[2]; 4.38 g/ha alone,20%
same,% Injury Ob,[2]; 8.75 g/ha alone,40%
same,% Injury Ob,[2]; 17.5 g/ha alone,75%
same,% Injury IPOHE Ob,[2]; alone 4.38 g/ha,10% and 0%
same,% Injury IPOHE Ob,[2]; alone 17.5 g/ha,85% and 75%
same,pest or weed control at 17.5 g/ha,"[3]; Veronica persica, post-emergence, 17.5 g/ha, read-out: VERPE Ob",45%
same,pest or weed control at 35 g/ha,"[3]; Veronica persica, post-emergence, 35 g/ha, read-out: VERPE Ob",58%
same,pest or weed control at 70 g/ha,"[3]; Veronica persica, post-emergence, 70 g/ha, read-out: VERPE Ob",70%
same,pest or weed control at 17.5 g/ha,[4]; 17.5 g/ha,55%
same,pest or weed control at 35 g/ha,[4]; 35 g/ha,63%
same,pest or weed control at 70 g/ha,[4]; 70 g/ha,75%
same,% Injury Ob,Cyperus iria L. (CYPIR); 35 g/ha alone,50%
same,% Injury CYPIR Ob,Cyperus iria L. (CYPIR); alone 4.38 g/ha,70%
same,% Injury CYPIR Ob,Cyperus iria L. (CYPIR); alone 35 g/ha,50%
"COc1c(Cl)ccc(-c2cc(N)c(Cl)c(C(=O)O)n2)c1F [Compound A TEA, 4-amino-3-chloro-6-(4-chloro-2-fluoro-3-methoxyphenyl)pyridine-2-carboxylic acid]",% Injury Ob,Scirpus species (SCPSS); 17.5 g/ha alone,60%
same,% Injury Ob,Scirpus species (SCPSS); 35 g/ha alone,85%
same,% Injury Ob,Scirpus species (SCPSS); 70 g/ha alone,95%
same,VERPE Ob,[3]; 35 g/ha,75%
same,VERPE Ob,[3]; 70 g/ha,80%
same,VERPE Ob,[3]; 140 g/ha,85%
same,pest or weed control at 8.75 g/ha,"[3]; Veronica persica, post-emergence, 8.75 g/ha alone, read-out: VERPE Ob",48%
same,pest or weed control at 17.5 g/ha,"[3]; Veronica persica, post-emergence, 17.5 g/ha alone, read-out: VERPE Ob",68%
same,pest or weed control at 35 g/ha,"[3]; Veronica persica, post-emergence, 35 g/ha alone, read-out: VERPE Ob",79%
same,pest or weed control at 35 g/ha,"[3]; Veronica persica, post-emergence, 35 g/ha, 1st VERPE column, read-out: VERPE Ob",60%
same,pest or weed control at 35 g/ha,"[3]; Veronica persica, post-emergence, 35 g/ha, 2nd VERPE column, read-out: VERPE Ob",75%
same,pest or weed control at 70 g/ha,"[3]; Veronica persica, post-emergence, 70 g/ha alone, read-out: VERPE Ob",88%
same,pest or weed control at 70 g/ha,"[3]; Veronica persica, post-emergence, 70 g/ha, 1st VERPE column, read-out: VERPE Ob",60%
same,pest or weed control at 70 g/ha,"[3]; Veronica persica, post-emergence, 70 g/ha, 2nd VERPE column, read-out: VERPE Ob",80%
same,pest or weed control at 140 g/ha,"[3]; Veronica persica, post-emergence, 140 g/ha, 1st VERPE column, read-out: VERPE Ob",60%
same,pest or weed control at 140 g/ha,"[3]; Veronica persica, post-emergence, 140 g/ha, 2nd VERPE column, read-out: VERPE Ob",85%
same,pest or weed control at 8.75 g/ha,[4]; 8.75 g/ha alone,30%
same,pest or weed control at 17.5 g/ha,[4]; 17.5 g/ha alone,40%
same,pest or weed control at 35 g/ha,[4]; 35 g/ha alone,47%
same,pest or weed control at 35 g/ha,[4]; 35 g/ha,30%
same,pest or weed control at 70 g/ha,[4]; 70 g/ha alone,60%
same,pest or weed control at 70 g/ha,[4]; 70 g/ha,60%
same,pest or weed control at 140 g/ha,[4]; 140 g/ha,60%
O=C(O)c1c(Cl)ccc2cc(Cl)cnc12 [Quinclorac],% Injury Ob,Cyperus iria L. (CYPIR); 140 g/ha alone,0%
